The source of these data is PubChem BioAssay AID1259411 (Chemical Carcinogenesis Research Information System (CCRIS), 2018).

This data set concerns rodent carcinogenicity bioassays, tumor incidence. The data set can be described thus: CCRIS carcinogenicity studies. The essentials:
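Archive of carcinogenicity, mutagenicity, tumor promotion and tumor inhibition results drawn from journals, NCI reports and other sources, expert-reviewed; covers 1985-2011 and is no longer updated.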

The source made the active and inactive calls. The rule behind the calls is not given here.

Regarding `O=NN1CCOCC1`, the carcinogen call was “active; positive” (Species: FISH, Route: ORAL, Tumor Site: Type of Lesion: LIVER); “active; positive” (Species: HAMSTER, Route: ORAL, Tumor Site: Type of Lesion: LIVER); “active; positive” (Species: HAMSTER, Route: SUBCUTANEOUS, Tumor Site: Type of Lesion: TRACHEA, NASAL CAVITY); “active; positive” (Species: HAMSTER, Strain/Sex: SYRIAN/MALE, Route: INHALATION, Dose: 0, 14.4 MG/M3 4 HR/D 4-5 D/WK FOR 5 WK FOR A DAILY DOSE OF 0, 1.8 MG/KG (STUDY DURATION: 91 WK), Dose: 0, 14.4 MG/M3 4 HR/D 4-5 D/WK FOR 5 WK FOR A DAILY DOSE OF 0, 1.8 MG/KG (STUDY DURATION: 91 WK), Tumor Site: Type of Lesion: LIVER: HEPATOCELLULAR CARCINOMA OR HEMANGIOENDOTHELIOMA OR CARCINOMA, FORESTOMACH: PAPILLOMA, TRACHEA: PAPILLOMA, Tumor Site: Type of Lesion: LIVER: HEPATOCELLULAR CARCINOMA OR HEMANGIOENDOTHELIOMA OR CARCINOMA, FORESTOMACH: PAPILLOMA, TRACHEA: PAPILLOMA); “active; positive” (Species: HAMSTER, Strain/Sex: SYRIAN/MALE, Route: INTRAGASTRIC, Dose: 0, 26 MG/ML IN 0.2 ML STERILIZED WATER 1/WK FOR 26 WK (TOTAL DOSE 135 MG) (STUDY DURATION: LIFESPAN), Tumor Site: Type of Lesion: NASAL CAVITY: CARCINOMA, TRACHEA: ADENOMA); “active; positive” (Species: MOUSE, Route: ORAL, Tumor Site: Type of Lesion: LIVER, LUNG). In addition, the carcinogen call (Species: MOUSE, Strain/Sex: STRAIN-A/FEMALE, Route: ORAL, Dose: 0, 0.2 UMOL/ML IN DRINKING WATER FOR 10 WK (TOTAL DOSE: 0, 54 UMOL) FOLLOWED BY TAP WATER FOR 20 WK (STUDY DURATION: 30, Tumor Site: Type of Lesion: LUNG: TUMORS) is “active; positive”; the carcinogen call (Species: RAT, Route: ORAL, Tumor Site: Type of Lesion: KIDNEY, LIVER) is “active; positive”; the carcinogen call (Species: RAT, Strain/Sex: F344/FEMALE, Route: GAVAGE, Dose: 0, 10 MG/WK FOR A TOTAL DOSE OF 1.9 MMOL (STUDY DYRATION: 30 WK), Tumor Site: Type of Lesion: ESOPHAGUS: TUMOR, LIVER: TUMOR, THYROID: TUMOR, Tumor Site: Type of Lesion: ESOPHAGUS: TUMOR, LIVER: TUMOR, THYROID: TUMOR) is “active; positive”; the carcinogen call (Species: RAT, Strain/Sex: F344/FEMALE, Route: INTRAVESICULAR, Dose: 0, 5 MG IN 0.2 ML ETHANOL: DEIONIZED WATER (1:3) 2/WK FOR 30 WK (TOTAL DOSE 2.6 MMOL) (STUDY DURATION: LIFESPAN), Tumor Site: Type of Lesion: LIVER: TUMOR, NASAL MUCOSA: TUMOR, ESOPHAGUS: TUMOR, Tumor Site: Type of Lesion: LIVER: TUMOR, NASAL MUCOSA: TUMOR, ESOPHAGUS: TUMOR) was “active; positive”; the carcinogen call (Species: RAT, Strain/Sex: F344/FEMALE, Route: ORAL, Dose: 0, 26.5 MG/L IN DRINKING WATER 5 D/WK FOR 50 WK (TOTAL DOSE: 0; 1.1 MMOL) (STUDY DURATION: 124 WK), Dose: 0, 26.5 MG/L IN DRINKING WATER 5 D/WK FOR 50 WK (TOTAL DOSE: 0; 1.1 MMOL) (STUDY DURATION: 124 WK), Tumor Site: Type of Lesion: LIVER: HEPATOCELLULAR TUMOR, HEMANGIOSARCOMA) was “active; positive”; the carcinogen call (Species: RAT, Strain/Sex: F344/FEMALE, Route: ORAL, Dose: 40 MG/L IN DRINKING WATER FOR 50 WK, Tumor Site: Type of Lesion: LIVER: HEPATOCELLULAR CARCINOMA, HEMANGIOENDOTHELIAL SARCOMA, ESOPHAGUS: PAPILLOMA, CARCINOMA) is “active; positive”. Further, the carcinogen call was “active; positive” (Species: RAT, Strain/Sex: F344/MALE, Route: ORAL, Dose: 0, 0.02% IN DRINKING WATER FOR 8 WK (STUDY DURATION: 20 WK), Tumor Site: Type of Lesion: LIVER: HEPATOCELLULAR CARCINOMA); “active; positive” (Species: RAT, Strain/Sex: F344/MALE, Route: ORAL, Dose: 16, 40 MG/L IN DRINKING WATER FOR 50 WK, Tumor Site: Type of Lesion: LIVER: HEPATOCELLULAR CARCINOMA, HEMANGIOENDOTHELIAL SARCOMA, ESOPHAGUS: PAPILLOMA); “inactive; negative” (Species: RAT, Strain/Sex: SD/G/MALE, Route: ORAL, Dose: 0, 0.02% IN DRINKING WATER FOR 8 WK (STUDY DURATION: 20 WK)); “active; positive” (Species: RAT, Strain/Sex: SPRAGUE-DAWLEY/FEMALE, Route: INHALATION, Dose: 0, 7.7 MG/M3 4 HR/D 4-5 D/WK FOR 6 WK FOR A DAILY DOSE OF 0, 0.5 MG/KG (STUDY DURATION: 124 WK), Dose: 0, 7.7 MG/M3 4 HR/D 4-5 D/WK FOR 6 WK FOR A DAILY DOSE OF 0, 0.5 MG/KG (STUDY DURATION: 124 WK), Tumor Site: Type of Lesion: LIVER: HEPATOCELLULAR CARCINOMA, NEOPLASTIC NODULE); “active; positive” (Species: RAT, Strain/Sex: WS/MALE, Route: ORAL, Dose: 0, 0.02% IN DRINKING WATER FOR 8 WK (STUDY DURATION: 20 WK), Tumor Site: Type of Lesion: LIVER: HEPATOCELLULAR CARCINOMA).

For `c1ccc2c(c1)ccc1cc3ccc4ccccc4c3cc12`, the carcinogen call (Species: MOUSE, Strain/Sex: SWISS/FEMALE, Route: DERMAL, Dose: 0, 78 UG IN ACETONE (0.4%) 2/WK FOR 60 WK FOR A TOTAL DOSE OF 0, 9.4 MG (STUDY DURATION: 80 WK), Dose: 0, 78 UG IN ACETONE (0.4%) 2/WK FOR 60 WK FOR A TOTAL DOSE OF 0, 9.4 MG (STUDY DURATION: 80 WK), Tumor Site: Type of Lesion: SKIN: CARCINOMA) is “active; positive”.

For the molecule `CNC(=O)Oc1cccc2ccccc12`, the carcinogen call was “inactive; negative” (Species: MOUSE, Strain/Sex: SWISS/FEMALE, Route: DERMAL, Dose: 0, 100 MG/KG IN 100 µL ACETONE 3/WK FOR 52 WK (STUDY DURATION: 52 WK)); “active; positive (purity 99.3%; study details not given in source; mtd may have been exc” (Species: Mouse, Strain/Sex: CD-1/Female (70/group), Route: Oral, Dose: 0, 100, 1,000, 8,000 ppm in feed for 104 wk, Dose: 0, 100, 1,000, 8,000 ppm in feed for 104 wk, Tumor Site: Type of Lesion: BLOOD VESSELS: Hemangiosarcoma and hemangioma (high dose only). LIVER: Hepatocellular adenoma and carcinoma (high dose o); “active; positive (purity 99.3%; study details not given in source; neoplastic lesions co” (Species: Mouse, Strain/Sex: CD-1/Male (70/group), Route: Oral, Dose: 0, 100, 1,000, 8,000 ppm in feed for 104 wk, Dose: 0, 100, 1,000, 8,000 ppm in feed for 104 wk, Tumor Site: Type of Lesion: BLOOD VESSELS: Hemangiosarcoma and hemangioma (all doses). KIDNEY: Renal tubular cell adenoma and carcinoma (high dose o); “active; positive” (Species: RAT, Strain/Sex: SWISS, Route: GAVAGE, Dose: 0, 30 MG/KG BW, 1/D FOR UP TO 22 MO, Tumor Site: Type of Lesion: INTESTINES: FIBROSARCOMA, BONE: OSTEOSARCOMA); “active; positive at the high dose level (purity 99%; study details not given in source)” (Species: Rat, Strain/Sex: Sprague-Dawley/Male (50/control and high-dose group and 40 per low-and mid-dose group), Route: Oral, Dose: 0, 250, 1,500, 7,500 ppm in feed for 104 wk, Dose: 0, 250, 1,500, 7,500 ppm in feed for 104 wk, Tumor Site: Type of Lesion: URINARY BLADDER: papilloma and carcinoma at highest dose. KIDNEY: one transitional cell carcinoma. LIVER: adenoma. THYRO).
